Measured values published in US12208110B2 (priority 2020, dated 2025).
Like-named read-outs stand apart in the source and are kept apart here.

What was measured:
SARS-CoV-2 = test: microbe, parasite or virus in culture; format: cell-based
MT-4 cells = test: MT4 cytotoxicity analysis (CellTiter-Glo); format: cell-based
In short: (§1)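 MT-4 cells were exposed in quadruplicate to 3-fold serial compound dilutions (DMSO stocks 2.5 uM to 10 mM) for five days at 37 °C. Viability was read by CellTiter-Glo luminescence.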

[1] = test system: RSV-Fluc (Recombinant Respiratory Syncytial virus strain A2 containing the firefly luciferase reporter); test: microbe, parasite or virus in culture; format: cell-based; settings: read-out: RSV-Fluc EC50 (nM, NHBE)
[2] = set-up: species or system Sprague-Dawley (SD) rats; settings: male, Sprague-Dawley, rat, in vivo, po, 10 mg/kg
Method: Example 80: Rat Lung Phosphate (Monophosphate, Diphosphate and Triphosphate) Data with Exemplary Compounds
Measurement of GS-441524 (compound A below) and its phosphorylated metabolites (compounds B, C, and D below) in lung tissues was performed according to the following protocol.
The concentrations of GS-441524 (A) and its phosphorylated metabolites (B, C, and D) were determined in Sprague-Dawley (SD) rats following oral gavage administration of the test compounds. The in-life phase of studies was conducted at Covance Laboratories (Madison, WI). Animals were housed and handled in accordance with the Guide for the Care and Use of Laboratory Animals, Institute of Laboratory Animal Resources. The protocols were reviewed and approved by the Institutional Animal Care and Use Committees (IACUC). Male SD rats weighing approximately 0.3 kg were used for in-life portion of the studies. The animals were fasted overnight prior to the test compound administration and up to 4 hours post-dose. The animals were administered with the test compound at 5, 8, 10 or 20 mg/kg via oral gavage (3 rats per group). The aqueous formulation contains ethanol, dimethyl sulfoxide, Kolliphor HS-15, Labrasol, and propylene glycol. Approximately 0.5 grams of lung tissue samples were collected from each animal and analyzed by LC/MS/MS for determination of the concentrations of GS-441524 and its phosphorylated metabolites. For LC-MS/MS analysis, tissue samples were homogenized and extracted with 4-fold volume of 70% methanol containing 0.1% potassium hydroxide, 67 mM ethylenediamine tetraacetic acid, and internal standard. Approximately 200 μL aliquot of the homogenate was filtered using a 96-well filter plate (0.2 μm polypropylene; Agilent Captiva, Santa Clara, CA). The filtrate was evaporated to dryness and reconstituted with equal volume of 1 mM ammonium phosphate buffer (pH 7). The samples were then analyzed on a Sciex 6500+ LC-MS/MS instrument (Redwood City, CA). Analytes were eluted on a […] 50×2.0 mm Phenomenex Luna C18 HST column (Torrance, CA) using mobile phases containing 3 mM ammonium formate and 10 mM dimethylhexylamine and a linear gradient from 9% to 50% acetonitrile at a flow rate of 360 μL/min. Data acquisition and processing were accomplished using Sciex Analyst® Software. Total summed levels of GS-441524 phosphorylate metabolites (B+C+D) in lung tissues were generated from the sum of GS-441524 mono-, di- and tri-phosphate (B, C, and D respectively).

[3] = MT4 cytotoxicity analysis (CellTiter-Glo); format: cell-based; settings: human, MT4 CC50 (nM)
In short: as §1

[4] = Severe acute respiratory syndrome coronavirus 2, 48 h
[5] = human respiratory syncytial virus, NHBE, 72 h
[6] = MT-4 cells, five days, CellTiter-Glo, read-out: MT4 CC50

Row | SMILES | EC50 (SARS-CoV-2; [4]) | CC50 (MT-4 cells; human, 5 days) | EC50 [1, 5] | other results
1 | CCCCCCCCCCCCCCCCCCOC[C@@H](OCc1ccccc1)C(C)OP(=O)(O)OC[C@H]1O[C@@](C#N)(c2ccc3c(N)ncnn23)[C@H](O)[C@@H]1O (single isomer, unassigned) [Example 12] | 8.4 µM | 10 µM | 240 nM | –
2 | CCCCCCCCCCCCCCCCCCOC[C@@H](OCc1ccccc1)C(C)OP(=O)(O)OC[C@H]1O[C@@](C#N)(c2ccc3c(N)ncnn23)[C@H](O)[C@@H]1O (single isomer, unassigned) [Example 13] | – | 29 µM | – | EC50 (SARS-CoV-2): 9.5 µM; EC50 ([1]; NHBE cells, RSV-Fluc MOI 0.1, three days, luciferase readout): 240 nM
3 | CCCCCCCCCCCCCCCCCCOC[C@H](COP(=O)(O)OC[C@H]1O[C@@](C#N)(c2ccc3c(N)ncnn23)[C@H](O)[C@@H]1O)N(C)Cc1cc(F)cc(C#N)c1 [Example 6, ((2R,3S,4R,5R)-5-(4-aminopyrrolo[2,1-f][1,2,4]triazin-7-yl)-5-cyano-3,4-dihydroxytetrahydrofuran-2-yl)methyl ((R)-2-((3-cyano-5-fluorobenzyl)(methyl)amino)-3-(octadecyloxy)propyl) hydrogen phosphate] | 10 µM | 50 µM | 570 nM | –
4 | CCCCCCCCCCCCCCCCCCOC[C@H](COP(=O)(O)OC[C@H]1O[C@@](C#N)(c2ccc3c(N)ncnn23)[C@H](O)[C@@H]1O)OC(=O)c1ccccc1 [Example 17, (2R)-1-(((((2R,3S,4R,5R)-5-(4-aminopyrrolo[2,1-f][1,2,4]triazin-7-yl)-5-cyano-3,4-dihydroxytetrahydrofuran-2-yl)methoxy)(hydroxy)phosphoryl)oxy)-3-(octadecyloxy)propan-2-yl benzoate] | 0.89 µM | 50 µM | 120 nM | –
5 | CCCCCCCCCOCCCOP(=O)(O)OC[C@H]1O[C@@](C#N)(c2ccc3c(N)ncnn23)[C@H](O)[C@@H]1O [Example 25, ((2R,3S,4R,5R)-5-(4-Aminopyrrolo[2,1-f][1,2,4]triazin-7-yl)-5-cyano-3,4-dihydroxytetrahydrofuran-2-yl)methyl (3-(nonyloxy)propyl) hydrogen phosphate] | 10 µM | – | 5000 nM | CC50 (MT-4 cells; [6]): 50 µM
6 | CCCCCCCCOCCOP(=O)(O)OC[C@H]1O[C@@](C#N)(c2ccc3c(N)ncnn23)[C@H](O)[C@@H]1O [Example 26, ((2R,3S,4R,5R)-5-(4-Aminopyrrolo[2,1-f][1,2,4]triazin-7-yl)-5-cyano-3,4-dihydroxytetrahydrofuran-2-yl)methyl (2-(octyloxy)ethyl) hydrogen phosphate] | 10 µM | – | 5000 nM | CC50 (MT-4 cells; [6]): 50 µM
7 | CCCCCCCCCCCOCCOP(=O)(O)OC[C@H]1O[C@@](C#N)(c2ccc3c(N)ncnn23)[C@H](O)[C@@H]1O [Example 27, ((2R,3S,4R,5R)-5-(4-Aminopyrrolo[2,1-f][1,2,4]triazin-7-yl)-5-cyano-3,4-dihydroxytetrahydrofuran-2-yl)methyl (2-(undecyloxy)ethyl) hydrogen phosphate] | 10 µM | – | 5000 nM | CC50 (MT-4 cells; [6]): 50 µM
8 | CCCCCCCCCCCCCCCCCCOC[C@H](COP(=O)(O)OC[C@H]1O[C@@](C#N)(c2ccc3c(N)ncnn23)[C@H](O)[C@@H]1O)NC(=O)c1ccccc1 [Example 30, ((2R,3S,4R,5R)-5-(4-aminopyrrolo[2,1-f][1,2,4]triazin-7-yl)-5-cyano-3,4-dihydroxytetrahydrofuran-2-yl)methyl ((R)-2-benzamido-3-(octadecyloxy)propyl) hydrogen phosphate] | 8.3 µM | 50 µM | 130 nM | –
9 | CCCCCCCCCCCCCCCCCCOC[C@H](COP(=O)(O)OC[C@H]1O[C@@](C#N)(c2ccc3c(N)ncnn23)[C@H](O)[C@@H]1O)Oc1ccccc1C(=O)O [Example 38, 2-(((2R)-1-(((((2R,3S,4R,5R)-5-(4-aminopyrrolo[2,1-f][1,2,4]triazin-7-yl)-5-cyano-3,4-dihydroxytetrahydrofuran-2-yl)methoxy)(hydroxy)phosphoryl)oxy)-3-(octadecyloxy)propan-2-yl)oxy)benzoic acid] | – | 50 µM | 160 nM | –
10 | CCCCCCCCCCCCCCCCCCOC[C@H](COP(=O)(O)OC[C@H]1O[C@@](C#N)(c2ccc3c(N)ncnn23)[C@H](O)[C@@H]1O)OCc1cc(OC)c(C#N)c(OC)c1 [Example 55, ((2R,3S,4R,5R)-5-(4-aminopyrrolo[2,1-f][1,2,4]triazin-7-yl)-5-cyano-3,4-dihydroxytetrahydrofuran-2-yl)methyl ((R)-2-((4-cyano-3,5-dimethoxybenzyl)oxy)-3-(octadecyloxy)propyl) hydrogen phosphate] | – | – | 24 nM | Total Lung Phosphate Level (monophosphate + diphosphate + triphosphate, nmol/g) [2]: 2.1 nmol/g; CC50 at 5 days [3]: 270 nM
11 | CCCCCCCCCCCCCCCCCCOC[C@H](COP(=O)(O)OC[C@H]1O[C@@](C#N)(c2ccc3c(N)ncnn23)[C@H](O)[C@@H]1O)NC(=O)c1cccc(C#N)c1 [Example 57, ((2R,3S,4R,5R)-5-(4-aminopyrrolo[2,1-f][1,2,4]triazin-7-yl)-5-cyano-3,4-dihydroxytetrahydrofuran-2-yl)methyl ((R)-2-(3-cyanobenzamido)-3-(octadecyloxy)propyl) hydrogen phosphate] | 4.9 µM | 50 µM | 330 nM | –
12 | CCCCCCCCCCCCSCCCOP(=O)(O)OC[C@H]1O[C@@](C#N)(c2ccc3c(N)ncnn23)[C@H](O)[C@@H]1O [Example 63, [(2R,3S,4R,5R)-5-(4-Aminopyrrolo[2,1-f][1,2,4]triazin-7-yl)-5-cyano-3,4-dihydroxy-tetrahydrofuran-2-yl]methyl 3-dodecylsulfanylpropyl hydrogen phosphate] | 10 µM | 50 µM | 470 nM | –
13 | CCCCCCCCCCCCCCCCSCCCOP(=O)(O)OC[C@H]1O[C@@](C#N)(c2ccc3c(N)ncnn23)[C@H](O)[C@@H]1O [Example 65, [(2R,3S,4R,5R)-5-(4-Aminopyrrolo[2,1-f][1,2,4]triazin-7-yl)-5-cyano-3,4-dihydroxy-tetrahydrofuran-2-yl]methyl 3-hexadecylsulfanylpropyl hydrogen phosphate] | – | 50 µM | – | –
14 | CCCCCCCCCCCCCCCCCCOC[C@H](CO[P@@](=O)(S)OC[C@H]1O[C@@](C#N)(c2ccc3c(N)ncnn23)[C@H](O)[C@@H]1O)OCc1ccccc1 [Example 67, O-(((2R,3S,4R,5R)-5-(4-aminopyrrolo[2,1-f][1,2,4]triazin-7-yl)-5-cyano-3,4-dihydroxytetrahydrofuran-2-yl)methyl) O—((R)-2-(benzyloxy)-3-(octadecyloxy)propyl) O-hydrogen (R)-phosphorothioate] | 0.12 µM | 26 µM | 190 nM | –
15 | CCCCCCCCCCCCCCC#CC[C@H](COP(=O)(O)OC[C@H]1O[C@@](C#N)(c2ccc3c(N)ncnn23)[C@H](O)[C@@H]1O)OCc1cc(F)cc(C#N)c1 [Example 74, ((2R,3S,4R,5R)-5-(4-aminopyrrolo[2,1-f][1,2,4]triazin-7-yl)-5-cyano-3,4-dihydroxytetrahydrofuran-2-yl)methyl ((R)-2-((3-cyano-5-fluorobenzyl)oxy)nonadec-4-yn-1-yl) hydrogen phosphate] | 0.19 µM | – | 24 nM | CC50 at 5 days [3]: 300 nM
16 | CCCCCCCCCCCCCCC#CC[C@H](COP(=O)(O)OC[C@H]1O[C@@](C#N)(c2ccc3c(N)ncnn23)[C@H](O)[C@@H]1O)OCc1ccc(C#N)c(F)c1 [Example 75, ((2R,3S,4R,5R)-5-(4-aminopyrrolo[2,1-f][1,2,4]triazin-7-yl)-5-cyano-3,4-dihydroxytetrahydrofuran-2-yl)methyl ((R)-2-((4-cyano-3-fluorobenzyl)oxy)nonadec-4-yn-1-yl) hydrogen phosphate] | 0.072 µM | – | 17 nM | CC50 at 5 days [3]: 230 nM
17 | CCCCCCCCCCCCCCCCCCOC[C@H](COP(=O)(O)OC[C@H]1O[C@@](C#N)(c2ccc3c(N)ncnn23)[C@H](O)[C@@H]1O)OCc1ccccc1 [Reference Compound, reference compound] | – | – | – | Total Lung Phosphate Level (monophosphate + diphosphate + triphosphate, nmol/g) [2]: 0.5 nmol/g
